The CheMixHub viscosity set

Test: xn = mol fraction of the nth substance listed

CCC(C)=O + CCCCCCCO
viscosity [mPa·s], 100 kPa
Details	x1 = 0.0829	x1 = 0.1614	x1 = 0.2389	x1 = 0.3509	x1 = 0.4404	x1 = 0.5592	x1 = 0.6488	x1 = 0.7389	x1 = 0.8502	x1 = 0.9396
293.15 K	5.23	3.85	3.02	2.1	1.64	1.16	0.92	0.73	0.56	0.47
303.15 K	3.72	2.97	2.31	1.69	1.31	0.9	0.73	0.6	0.45	0.39
313.15 K	2.85	2.28	1.82	1.38	1.11	0.82	0.68	0.56	0.44	0.38
323.15 K	2.21	1.82	1.48	1.15	0.93	0.7	0.58	0.5	0.39	0.34

COCCOC + CCCCCCCO
101 kPa
Details	viscosity [mPa·s]
293.15 K, x1 = 0.04689	5.696
293.15 K, x1 = 0.1108	4.364
293.15 K, x1 = 0.1958	3.168
293.15 K, x1 = 0.2906	2.308
293.15 K, x1 = 0.402	1.645
293.15 K, x1 = 0.4906	1.283
293.15 K, x1 = 0.6674	0.843
293.15 K, x1 = 0.7068	0.768
293.15 K, x1 = 0.8006	0.631
293.15 K, x1 = 0.894	0.525
293.15 K, x1 = 0.948	0.477
303.15 K, x1 = 0.03301	4.403
303.15 K, x1 = 0.1088	3.286
303.15 K, x1 = 0.1924	2.49
303.15 K, x1 = 0.2936	1.802
303.15 K, x1 = 0.4015	1.325
303.15 K, x1 = 0.4903	1.066
303.15 K, x1 = 0.594	0.842
303.15 K, x1 = 0.7001	0.671
303.15 K, x1 = 0.8062	0.542
303.15 K, x1 = 0.8901	0.467
303.15 K, x1 = 0.9469	0.425
313.15 K, x1 = 0.04399	3.176
313.15 K, x1 = 0.1188	2.473
313.15 K, x1 = 0.1968	1.933
313.15 K, x1 = 0.2941	1.478
313.15 K, x1 = 0.404	1.121
313.15 K, x1 = 0.4883	0.918
313.15 K, x1 = 0.6006	0.717
313.15 K, x1 = 0.6962	0.591
313.15 K, x1 = 0.8094	0.482
313.15 K, x1 = 0.9	0.41
313.15 K, x1 = 0.9404	0.386

CCC(C)=O + CCCCCCO
viscosity [mPa·s], 100 kPa
Details	x1 = 0.0791	x1 = 0.1639	x1 = 0.2389	x1 = 0.3481	x1 = 0.4401	x1 = 0.5609	x1 = 0.6516	x1 = 0.7391	x1 = 0.8511	x1 = 0.9382
293.15 K	3.8	2.9	2.29	1.69	1.3	0.93	0.75	0.57	0.41	0.4
303.15 K	2.95	2.28	1.87	1.42	1.09	0.81	0.7	0.58	0.47	0.41
313.15 K	2.28	1.8	1.49	1.15	0.92	0.72	0.6	0.51	0.42	0.37
323.15 K	1.8	1.46	1.21	0.96	0.79	0.62	0.52	0.45	0.37	0.34

CCCCCCOC(C)=O + CCCCCCO
viscosity [mPa·s], 101.33 kPa
Details	x1 = 0.0998	x1 = 0.2013	x1 = 0.3012	x1 = 0.4056	x1 = 0.4937	x1 = 0.6002	x1 = 0.7021	x1 = 0.8045	x1 = 0.9018
293.15 K	4.012	3.281	2.721	2.266	1.964	1.677	1.464	1.299	1.176
303.15 K	3.073	2.502	2.065	1.71	1.474	1.249	1.083	0.954	0.858
313.15 K	2.301	1.899	1.584	1.332	1.164	1.005	0.887	0.795	0.726

COCCOC + CCCCCCO
101 kPa
Details	viscosity [mPa·s]
293.15 K, x1 = 0.03644	4.556
293.15 K, x1 = 0.07492	3.875
293.15 K, x1 = 0.1757	2.656
293.15 K, x1 = 0.2488	2.089
293.15 K, x1 = 0.3376	1.607
293.15 K, x1 = 0.4282	1.265
293.15 K, x1 = 0.5085	1.055
293.15 K, x1 = 0.5954	0.873
293.15 K, x1 = 0.6767	0.743
293.15 K, x1 = 0.7648	0.633
293.15 K, x1 = 0.8067	0.59
293.15 K, x1 = 0.8909	0.547
293.15 K, x1 = 0.9608	0.506
303.15 K, x1 = 0.03689	3.354
303.15 K, x1 = 0.08234	2.83
303.15 K, x1 = 0.1774	2.045
303.15 K, x1 = 0.2433	1.681
303.15 K, x1 = 0.3417	1.289
303.15 K, x1 = 0.4228	1.068
303.15 K, x1 = 0.5142	0.867
303.15 K, x1 = 0.5898	0.744
303.15 K, x1 = 0.6726	0.638
303.15 K, x1 = 0.7604	0.55
303.15 K, x1 = 0.8168	0.505
303.15 K, x1 = 0.8829	0.478
303.15 K, x1 = 0.9497	0.439
313.15 K, x1 = 0.02681	2.68
313.15 K, x1 = 0.04032	2.555
313.15 K, x1 = 0.07518	2.269
313.15 K, x1 = 0.1706	1.69
313.15 K, x1 = 0.3414	1.091
313.15 K, x1 = 0.4234	0.908
313.15 K, x1 = 0.5104	0.758
313.15 K, x1 = 0.5912	0.651
313.15 K, x1 = 0.6717	0.565
313.15 K, x1 = 0.7706	0.482
313.15 K, x1 = 0.8138	0.467
313.15 K, x1 = 0.8786	0.432
313.15 K, x1 = 0.9463	0.397

CCC(C)=O + CCCCCO
viscosity [mPa·s], 100 kPa
Details	x1 = 0.0814	x1 = 0.1574	x1 = 0.2391	x1 = 0.3486	x1 = 0.4417	x1 = 0.5529	x1 = 0.6492	x1 = 0.7389	x1 = 0.8509	x1 = 0.9389
293.15 K	2.92	2.27	1.8	1.33	1.07	0.84	0.66	0.55	0.42	0.39
303.15 K	2.31	1.82	1.46	1.12	0.91	0.73	0.61	0.52	0.45	0.4
313.15 K	1.8	1.45	1.2	0.92	0.77	0.63	0.54	0.46	0.4	0.36
323.15 K	1.45	1.18	0.99	0.78	0.66	0.54	0.46	0.4	0.35	0.32

CCCCCCOC(C)=O + CCCCCO
viscosity [mPa·s], 101.33 kPa
Details	x1 = 0.1057	x1 = 0.2038	x1 = 0.3074	x1 = 0.4005	x1 = 0.5019	x1 = 0.6009	x1 = 0.7083	x1 = 0.8029	x1 = 0.9041
293.15 K	3.347	2.798	2.346	2.028	1.755	1.548	1.373	1.253	1.153
303.15 K	2.392	2.002	1.682	1.456	1.262	1.115	0.991	0.906	0.835
313.15 K	1.889	1.594	1.352	1.181	1.035	0.924	0.83	0.766	0.712

COC(C)=O + CCCCCO
298.15 K, 101.33 kPa
Details	viscosity [mPa·s]
x1 = 0.1014	2.381
x1 = 0.2082	1.64
x1 = 0.2879	1.292
x1 = 0.3821	1.011
x1 = 0.4786	0.823
x1 = 0.5766	0.69
x1 = 0.6788	0.575
x1 = 0.7517	0.505
x1 = 0.846	0.425

CCCCCCCC(=O)OCC + CCCCO
viscosity [mPa·s], 100 kPa
Details	x2 = 0.1124	x2 = 0.2221	x2 = 0.3	x2 = 0.4	x2 = 0.4999	x2 = 0.5999	x2 = 0.727	x2 = 0.8203	x2 = 0.9108
293.15 K	1.508	1.507	1.521	1.548	1.587	1.651	1.795	2.014	2.351
298.15 K	1.378	1.379	1.378	1.407	1.436	1.488	1.61	1.789	2.071
303.15 K	1.264	1.261	1.263	1.295	1.307	1.36	1.468	1.611	1.842
308.15 K	1.162	1.161	1.164	1.177	1.193	1.233	1.331	1.458	1.646
313.15 K	1.069	1.062	1.06	1.07	1.09	1.122	1.194	1.307	1.467
318.15 K	0.999	0.988	0.99	0.993	1.013	1.039	1.106	1.193	1.327
323.15 K	0.932	0.927	0.92	0.925	0.94	0.958	1.011	1.091	1.208
